{
  "source": "patent US11235020B2",
  "about": "“Methods and compositions for inhibiting glyoxalase 1 (GLO1)” (priority 2013, dated 2022)",
  "key": {"[1]": {"molecular_target": "purified human GLO1 (Homo sapiens, UniProt Q04760)", "sequence (Q04760 whole entry)": "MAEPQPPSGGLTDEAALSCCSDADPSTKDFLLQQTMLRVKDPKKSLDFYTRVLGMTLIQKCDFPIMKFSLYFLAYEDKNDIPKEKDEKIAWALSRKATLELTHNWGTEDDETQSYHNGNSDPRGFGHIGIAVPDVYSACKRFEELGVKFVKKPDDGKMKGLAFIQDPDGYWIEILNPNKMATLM", "test": "GLO1 enzymatic activity assay with purified protein", "type": "biochemical", "details": "100 μM BrBzGCp2, 10 ng purified GLO1", "experimental": "GLO1 activity was assayed by measuring the rate of formation of S-d-lactoylglutathione (Allen 1993).\nPurified protein: 100 ng of purified protein was added to a hemithioacetal substrate, and enzymatic activity was measure as described above.\nEnzymatic activity: Vehicle (DMSO) or 100 μM BrBzGCp2 was added to 10 ng of purified human GLO1. Enzymatic activity was measured as described above."}, "[2]": {"tested_on": "mice", "test": "Observation of sedation or gross deficits in treated mice", "details": "mice treated with BrBzGCp2"}, "[3]": {"tested_on": "anxiety-like behavior and locomotion in mice", "test": "Open field (OF) test", "type": "in vivo, mouse", "details": "14 days"}, "[4]": {"tested_on": "anxiety-like behavior and locomotion in mice", "test": "Open field (OF) test", "type": "in vivo, mouse", "experimental": "OF test: Mice were placed into the center of the OF, and activity was monitored for five to ten minutes. The apparatus was illuminated to approximately 40 lux. Data were collected and processed using the manufacturer's software (AccuScan Instruments).\nOF test: Ten minutes post-injection, mice were placed into the center of the OF. The apparatus was illuminated to approximately 40 lux. Behavior was measured as described above.\nOF test replication studies: Ten to twenty minutes post-injection, mice were tested in the OF for five to ten minutes. In some experiments, behavior was scored as described above. In other experiments, mice were tested in the OF, and behavior was automatically scored by the Noldus Ethovision System. For mice tested in the Noldus system, the apparatus was illuminated to approximately 1,000 lux.\nChronic MG administration: For five days, mice were injected twice daily with vehicle or MG (4 mg/kg). Twelve hours after the final injection, mice were tested in the OF as described above.\nPure MG: Pure MG was obtained from Dr. John Termini at the City of Hope, Duarte, Calif. It was administered at the indicated doses by i.p. injection. Mice were tested as described above.\nOF test: Two hours post-injection, mice were tested in the OF test as described above. The center size was 10×10 cm. The apparatus was illuminated to approximately 40 lux."}, "[5]": {"tested_on": "depression-like behavior in mice", "test": "Chronic forced swim test (cFST), osmotic minipump", "type": "in vivo, mouse", "details": "14 days", "experimental": "To fully assess the therapeutic potential of GLO1 inhibitors, it is necessary to utilize behavioral models sensitive to chronic administration. These models are highly informative as the therapeutic onset of antidepressant action mimics clinical onset in humans. pBBG was administered by osmotic minipumps (Alzet) for 14 days at various doses (0, 5, 10, 15, 30 and 60 mg/kg/day) to establish a dose response curve. Osmotic minipumps are ideal for chronic treatment as they release a constant volume at a very slow rate minimizing the stress of multiple injections."}, "[6]": {"tested_on": "pilocarpine-induced seizures", "test": "Pilocarpine-induced seizures", "type": "in vivo, mouse", "experimental": "Drug administration: All experiments with MG utilized crude MG obtained from Sigma-Aldrich. For pre-treatment, MG (50 or 200 mg/kg) or vehicle (0.9% saline) was administered by i.p. injection 10 minutes before the seizure-inducing agent. For treatment after seizure onset, MG (200 mg/kg) or vehicle (0.9% saline) was administered by i.p. injection ten minutes after seizure onset. For GLO1 inhibition, BrBzGCp2 (50 mg/kg) or vehicle (8% DMSO and 18% Tween-80) was administered by i.p. injection two hours before seizure induction.\nSeizure induction: For picrotoxin-induced seizures, 5 mg/kg of picrotoxin in 0.9% saline was administered by i.p. injection. Seizures were scored for one hour after picrotoxin administration. For pilocarpine-induced seizures, mice were pre-treated with atropine (5 mg/kg in 0.9% saline) by i.p. injection in order to reduce the peripheral effects of pilocarpine. Thirty minutes after atropine administration, pilocarpine was administered by i.p. injection. B6 mice were treated with 250 mg/kg pilocarpine in 0.9% saline, and FVB mice (WT and Tg) were treated with 300 mg/kg pilocarpine in 0.9% saline. Seizures were scored for 90 minutes after pilocarpine administration.\nPilocarpine-induced seizures were scored as previously reported (Winawer 2011):\nStage 1: Immobility/Lying Low\nStage 2: Partial (limbic) seizures. Non-continuous twitching/tremor/shaking of tail/head/body/limbs, forelimb and/or tail extension, rigid posture, repetitive movements, head bobbing\nStage 3: Partial status epilepticus. Continuous tremor/clonic seizures of body and tail while retaining posture\nStage 4: Generalized seizures. Rearing/hyperexcitability/running/falling, tonic extension/clonic seizures with loss of posture\nStage 5: Generalized status epilepticus (continuous stage 4 seizures) resulting in death"}, "[7]": {"tested_on": "depression-like behavior in mice", "test": "Tail suspension test (TST)", "type": "in vivo, mouse", "details": "pBBG pretreatment", "experimental": "Mice were suspended by their tails using adhesive tape attached to a bar elevated approximately 46 cm above a table. The apparatus was illuminated to approximately 1,000 lux. Mice were tested individually, and time spent immobile was scored manually for six minutes. For MG studies, mice were treated with vehicle (0.9% saline) or crude MG (Sigma-Aldrich, 50 mg/kg) by i.p. injection ten minutes before the test. Behavior was scored for five minutes."}, "[8]": {"tested_on": "depression-like behavior in mice", "test": "Forced swim test (FST), acute treatment", "type": "in vivo, mouse", "details": "pBBG 50 mg/kg i.p., two hours later; C57BL/6J, FVB/nJ and BALB/cJ mice", "experimental": "The forced swim test (FST) is a highly reliable screen used to predict antidepressant efficacy after acute antidepressant treatments (Petit-Demouliere, Chenu & Bourin 2005). The FST relies on the phenomenon that relative to no treatment, mice receiving treatment with antidepressants will spend more time performing escape-oriented behaviors than immobile postures. […] Mice on three genetic backgrounds (C57BL/6J, FVB/nJ and BALB/cJ) were treated with 50 mg/kg pBBG (i.p.) and assessed depression-like behavior in the FST two hours later."}, "[9]": {"molecular_target": "T1, GLO1 (Mus musculus, UniProt Q9CPU0)", "T1 construct": "from tissue; host or cells: whole brain of WT C57BL/6J mice, in vivo dosing", "T1 sequence (Q9CPU0 2-184 limits assumed)": "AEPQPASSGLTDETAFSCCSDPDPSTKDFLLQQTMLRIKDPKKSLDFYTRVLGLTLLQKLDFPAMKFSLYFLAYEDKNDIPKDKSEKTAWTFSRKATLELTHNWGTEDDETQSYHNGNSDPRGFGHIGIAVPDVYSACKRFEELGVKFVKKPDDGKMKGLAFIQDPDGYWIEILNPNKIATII", "test": "HPLC measurement of MG concentration in whole brain after i.p. BrBzGCp2", "type": "in vivo", "details": "BrBzGCp2 30 mg/kg i.p., two hours", "experimental": "MG concentration was measured by HPLC as previously described with modifications (Dhar 2009). Tissue was homogenized in 50 mM sodium phosphate buffer (pH 6.6) and 0.8N perchloric acid. It was then incubated on ice for 10 minutes and centrifuged. The supernatant was filtered, and MG was derivatized with 10 mM o-phenylenediamine to form 2-methylquinoxaline (2-MQ). 5-methylquinoxaline (5-MQ, 15 μM) was spiked into each sample as an internal standard. 2-MQ was quantified using an HP 1100 HPLC system (Agilent) with a Nova-Pak C18 column (Waters Corporation). Column effluent was monitored at 315 nm. 2-MQ concentration was determined by comparison to 2-MQ standards of known mass. Quantification of 2-MQ was corrected for losses by comparison with 5-MQ. MG concentration was calculated as 2-MQ/tissue weight.\nTreatment: BrBzGCp2 was dissolved in vehicle (8% DMSO and 18% Tween-80). Mice were treated i.p. with 10 ml/kg BrBzGCp2 or vehicle.\nHPLC: 2 hours post-injection, mice were sacrificed, and brains were rapidly dissected and flash-frozen on dry ice. MG concentration was measured as described above."}, "[10]": {"tested_on": "mice", "test": "Signs of toxicity after chronic administration", "type": "in vivo", "details": "chronic pBBG by osmotic minipump", "experimental": "(A) Chronic (14 day) treatment by osmotic minipump with 5 or 10 mg/kg/day pBBG reduced immobility in the FST, establishing that chronic administration has antidepressant effects."}, "[11]": {"details": "BrBzGCp2 30 mg/kg i.p., B6 mice, two hours post-injection"}},
  "data": [
    {"molecule": "N[C@@H](CCC(=O)N[C@@H](CSCc1ccc(Br)cc1)C(=O)NCC(=O)OC1CCCC1)C(=O)OC1CCCC1", "note": "[BrBzGCp2, S-bromobenzylglutathione cyclopentyl diester]", "values": [
      {"measurement": "GLO1 enzymatic activity", "setting": "[1]", "value": "inhibit GLO1 enzymatic activity in vitro"},
      {"measurement": "sedation or gross deficits", "setting": "[2]", "value": "did not display sedation or gross deficits"},
      {"measurement": "total distance traveled in the OFT", "setting": "[3]; pBBG 5, 10, or 15 mg/kg/day", "value": "had no effect on total distance traveled in the OFT"},
      {"measurement": "total distance traveled in the OFT", "setting": "[3]; pBBG 15, 30 or 60 mg/kg/day", "value": "also had no effect on total distance traveled"},
      {"measurement": "center time in the OF test", "setting": "[4]; [11]", "value": "increased center time in the OF test"},
      {"measurement": "distance traveled in the OF test", "setting": "[4]; [11]", "value": "without changing distance traveled"},
      {"measurement": "anxiogenic effect of the Glo1 duplication in the OF", "setting": "[4]; BrBzGCp2 50 mg/kg i.p., CD-1 mice with Glo1 duplication", "value": "reversed this effect"},
      {"measurement": "center time in the OF", "setting": "[4]; BrBzGCp2 50 mg/kg i.p., CD-1 mice, two hours post-injection", "value": "increased center time in the OF"},
      {"measurement": "immobility in the FST compared with fluoxetine", "setting": "[5]; pBBG 5 mg/kg/day", "value": "reduced immobility in the FST to a similar extent as a selective serotonin reuptake inhibitor"},
      {"measurement": "immobility in the FST after chronic treatment", "setting": "[5]; pBBG 5 or 10 mg/kg/day", "value": "reduce immobility in the FST"},
      {"measurement": "immobility in the FST after chronic treatment", "setting": "[5]; pBBG 30, 60 mg/kg/day", "value": "increased immobility in the FST"},
      {"measurement": "seizure stage", "setting": "[6]; BrBzGCp2 50 mg/kg i.p. two hours before pilocarpine", "value": "did not affect seizure stage"},
      {"measurement": "seizure duration (time in stage 3)", "setting": "[6]; BrBzGCp2 50 mg/kg i.p. two hours before pilocarpine 250 mg/kg", "value": "reduced seizure durations"},
      {"measurement": "seizure latency", "setting": "[6]; BrBzGCp2 50 mg/kg i.p. two hours before pilocarpine, data not shown", "value": "did not significantly affect seizure latency"},
      {"measurement": "immobility on the TST", "setting": "[7]; C57BL/6J (B6) mice", "value": "decreased immobility on the TST"},
      {"measurement": "immobility on the TST", "setting": "[7]; FVB/NJ mice", "value": "decreased immobility on the TST"},
      {"measurement": "immobility in the FST", "setting": "[8]", "value": "reduced immobility in all strains"},
      {"measurement": "increase of MG concentration in the brain", "setting": "[9]", "value": "approximately 20%"},
      {"measurement": "signs of toxicity following chronic administration", "setting": "[10]", "value": "none were observed"}
    ]}
  ]
}
